# Measurements reported in ChEMBL document CHEMBL1201862, “PubChem BioAssay data set” (2004).
#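 Exposure lasted 48 hours, with cells grown in 96-well plates and compounds tested at five concentrations. Abbreviation: GI50, concentration required for 50% inhibition of growth.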 Active and inactive are the calls of the source. Rule as the data show it: active = GI50 up to about 1.1 µM and inactive = higher. Positions of bridges follow the written chain, without caps; N, C: chain ends. Non-standard residues stand in square brackets, D forms with d. Residues, ends and D or L forms follow the SMILES beside them. *: point of attachment. Cbz = O=C(OCc1ccccc1)*; Aib = CC(C)(N)C(=O)O; OBn = c1ccc(CO*)cc1; βAla = NCCC(=O)O
# Key:
# Assay in all cases: inhibition of tumour cell growth, NCI panel, 48 h
# ACHN = test system: ACHN
# DU-145 = test system: DU-145
# HCT-116 = test system: HCT-116
# IGROV-1 = test system: IGROV-1
# KM12 = test system: KM12
# MCF7 = test system: MCF7
# MDA-MB-231 = test system: MDA-MB-231
# MDA-MB-435 = test system: MDA-MB-435
# MDA-N = test system: MDA-N
# NCI-H226 = test system: NCI-H226
# OVCAR-5 = test system: OVCAR-5
# RXF 393 = test system: RXF 393
# SF-539 = test system: SF-539
# SK-MEL-28 = test system: SK-MEL-28
# SK-OV-3 = test system: SK-OV-3
# SW-620 = test system: SW-620
# U-251 = test system: U-251
# UACC-62 = test system: UACC-62
# CCRF-CEM = test system: CCRF-CEM
SMILES,GI50 (ACHN),GI50 (DU-145),GI50 (HCT-116),GI50 (IGROV-1),GI50 (KM12),GI50 (MCF7),GI50 (MDA-MB-231),GI50 (MDA-MB-435),GI50 (MDA-N),GI50 (NCI-H226),GI50 (OVCAR-5),GI50 (RXF 393),GI50 (SF-539),GI50 (SK-MEL-28),GI50 (SK-OV-3),GI50 (SW-620),GI50 (U-251),GI50 (UACC-62),GI50 (CCRF-CEM)
Nc1nnnn1CCO,> 100 µM (inactive),> 100 µM (inactive),> 100 µM (inactive),> 100 µM (inactive),> 100 µM (inactive),> 100 µM (inactive),> 100 µM (inactive),> 100 µM (inactive),> 100 µM (inactive),> 100 µM (inactive),> 100 µM (inactive),> 100 µM (inactive),> 100 µM (inactive),> 100 µM (inactive),> 100 µM (inactive),> 100 µM (inactive),> 100 µM (inactive),> 100 µM (inactive),–
COC(=O)c1ccc(NCc2c(O)ccc(O)c2Br)cc1Cl,15.6 µM (inactive),16.2 µM (inactive),17.8 µM (inactive),14.5 µM (inactive),15.3 µM (inactive),16 µM (inactive),15.2 µM (inactive),13.6 µM (inactive),12 µM (inactive),31.5 µM (inactive),14.6 µM (inactive),–,14.2 µM (inactive),16.8 µM (inactive),> 100 µM (inactive),12.2 µM (inactive),16.7 µM (inactive),15.7 µM (inactive),0.367 µM (active)
O=c1[nH]c2nc3ccccc3c(=O)n2/c1=C/c1ccco1,> 100 µM (inactive),> 100 µM (inactive),> 100 µM (inactive),> 100 µM (inactive),> 100 µM (inactive),4.2 µM (inactive),> 100 µM (inactive),> 100 µM (inactive),> 100 µM (inactive),> 100 µM (inactive),> 100 µM (inactive),–,> 100 µM (inactive),> 100 µM (inactive),> 100 µM (inactive),> 100 µM (inactive),> 100 µM (inactive),> 100 µM (inactive),> 100 µM (inactive)
O=C1Nc2ccccc2/C1=N/N1C(=O)/C(=C/c2ccccc2S)N=C1c1ccccc1,92.3 µM (inactive),> 100 µM (inactive),99.8 µM (inactive),97.1 µM (inactive),66.4 µM (inactive),58.7 µM (inactive),> 100 µM (inactive),42.3 µM (inactive),82.4 µM (inactive),–,> 100 µM (inactive),68.9 µM (inactive),> 100 µM (inactive),> 100 µM (inactive),> 100 µM (inactive),71.1 µM (inactive),67.6 µM (inactive),90.6 µM (inactive),33.3 µM (inactive)
COc1cc2c(cc1OC)C1CN3C(=O)CCC3C(O)C1c1cc(OC)c(OC)cc1-2 (stereo unspecified),> 100 µM (inactive),> 100 µM (inactive),> 100 µM (inactive),> 100 µM (inactive),> 100 µM (inactive),> 100 µM (inactive),> 100 µM (inactive),> 100 µM (inactive),> 100 µM (inactive),–,> 100 µM (inactive),> 100 µM (inactive),–,> 100 µM (inactive),> 100 µM (inactive),> 100 µM (inactive),> 100 µM (inactive),> 100 µM (inactive),> 100 µM (inactive)
COc1ccc(C(Nc2ccccn2)c2cc(C(C)(C)C)cc(C(C)(C)C)c2O)cc1 (stereo unspecified),30.8 µM (inactive),7.76 µM (inactive),12.6 µM (inactive),24 µM (inactive),14.9 µM (inactive),16.2 µM (inactive),33.4 µM (inactive),17.4 µM (inactive),20.7 µM (inactive),21.3 µM (inactive),42 µM (inactive),7.74 µM (inactive),48.1 µM (inactive),50.4 µM (inactive),19.5 µM (inactive),19.2 µM (inactive),19.8 µM (inactive),17 µM (inactive),–
COc1ccc(OC)c(C2CCc3cnc4nc(N)nc(N)c4c3C2)c1 (stereo unspecified),> 100 µM (inactive),> 100 µM (inactive),46 µM (inactive),56 µM (inactive),> 100 µM (inactive),> 100 µM (inactive),> 100 µM (inactive),87.1 µM (inactive),55.5 µM (inactive),–,> 100 µM (inactive),33.6 µM (inactive),–,> 100 µM (inactive),> 100 µM (inactive),> 100 µM (inactive),48.8 µM (inactive),74 µM (inactive),> 100 µM (inactive)
NC(c1ccccc1)(C(F)(F)F)P1(=O)OC(=O)c2ccccc2O1 (stereo unspecified),> 100 µM (inactive),> 100 µM (inactive),> 100 µM (inactive),> 100 µM (inactive),> 100 µM (inactive),> 100 µM (inactive),> 100 µM (inactive),> 100 µM (inactive),> 100 µM (inactive),> 100 µM (inactive),> 100 µM (inactive),> 100 µM (inactive),> 100 µM (inactive),> 100 µM (inactive),26.9 µM (inactive),> 100 µM (inactive),> 100 µM (inactive),> 100 µM (inactive),–
NC1=NCC(CN2CCCC2)O1 (stereo unspecified),> 100 µM (inactive),> 100 µM (inactive),> 100 µM (inactive),> 100 µM (inactive),> 100 µM (inactive),> 100 µM (inactive),> 100 µM (inactive),> 100 µM (inactive),> 100 µM (inactive),–,> 100 µM (inactive),> 100 µM (inactive),> 100 µM (inactive),> 100 µM (inactive),> 100 µM (inactive),> 100 µM (inactive),> 100 µM (inactive),> 100 µM (inactive),> 100 µM (inactive)
CN(C)CCOC(=O)c1ccc(N)cc1,54.1 µM (inactive),71.6 µM (inactive),54.7 µM (inactive),22.4 µM (inactive),37.2 µM (inactive),32.6 µM (inactive),16.1 µM (inactive),41.8 µM (inactive),36.6 µM (inactive),21.5 µM (inactive),29.6 µM (inactive),97.1 µM (inactive),–,29.1 µM (inactive),56.6 µM (inactive),64.4 µM (inactive),32.1 µM (inactive),36.8 µM (inactive),20.7 µM (inactive)
CC1(C)NC(=O)C(NC(=O)C(CC(=O)OCc2ccccc2)NC(=O)OCc2ccccc2)CCCCNC(=O)CCNC1=O (stereo unspecified) (Cbz-D(OBn)K[Aib][βAla]; lactam 2-C; configuration not given here),> 100 µM (inactive),> 100 µM (inactive),> 100 µM (inactive),> 100 µM (inactive),> 100 µM (inactive),> 100 µM (inactive),> 100 µM (inactive),> 100 µM (inactive),> 100 µM (inactive),> 100 µM (inactive),> 100 µM (inactive),> 100 µM (inactive),> 100 µM (inactive),> 100 µM (inactive),> 100 µM (inactive),> 100 µM (inactive),> 100 µM (inactive),> 100 µM (inactive),–
